Reference: patent publication US20260218210A1, “ENGINEERED BACTERIA FOR CELLULAR BARRIER M[…] PROTECTION” (The Trustees of Columbia University in the City of New York, priority 2023, published 2026)

Assays:
[1] = test system: colon tissue gene expression; test: RNA-sequencing of colon tissue of FDD mice during DSS colitis; format: in vivo, mouse
Description: (§1) DSS colitis and GLP-1 modulating therapies For induction of acute DSS colitis, between 0.5% to 6% w/v dextran sulfate sodium (DSS, colitis grade, MPbio) was supplemented in drinking water for five days. Drinking water was furthermore enriched with 2% w/v sucrose for all groups. Mice were switched to FDD seven days prior to DSS supplementation or maintained on ND during course of experiment. As indicated, FDD mice were i.p. injected with 0.1 μg/g GLP-1 receptor agonist (Exendin-4, AS-24463, AnaSpec) or 0.4 μg/g GLP-1 receptor antagonist (Exendin-9-39, AS-24467, AnaSpec) in 100 μl PBS every day starting one day before start of DSS. Additionally, mice were orally gavaged with either 10^10 CFU E. coli Nissle (EcN) or 10^10 CFU E. coli Nissle-HldSE (EcN-HldSE) every day starting one day prior to DSS supplementation. Of note, tissue samples for RNA-sequencing analysis are derived from mice either gavaged with EcN (control and GLP-1 receptor agonist groups) or EcN-HldSE (EcN-HldSE and GLP-1 receptor antagonist groups). Mice were monitored daily for changes in body weight. After five days, mice were euthanized for blood and tissue sampling.
RNA colonic transcriptomics For mRNA sequencing using the Illumina platform, total RNA was first extracted from tissue using TRItol reagent. The extracted RNA was quantified using Bioanalyzer to ensure high-quality RNA (RIN>7) for further library preparation. Poly-A mRNA was isolated using the Dynabeads™ mRNA Purification Kit (Thermo Fisher, #61006), followed by fragmentation with the NEBNext Ultra II RNA Library Prep Kit (New England Biolabs, #E7770) at 94° C. for 8 minutes. First-strand cDNA synthesis was performed using SuperScript IV Reverse Transcriptase (Thermo Fisher, #18090050), followed by second-strand cDNA synthesis. […] Libraries were validated for quality and size distribution using 2% agarose gel and enriched using size selection beads to eliminate any cDNA below 350 bp, and quantified using a Qubit 4 Fluorometer (Thermo Fisher, #Q33226). Sequencing was performed on an Illumina NextSeq550 platform using paired-end 150 bp reads high output.
Post-sequencing, FastQC (v0.11.9) was employed to assess raw read quality, evaluating metrics such as per-base sequence quality (Q30 or higher), GC content, and potential adapter contamination. […] Reads alignment and transcripts quantification of gene expression were done using Kallisto (v0.46.1) and DESeq2 (v1.30.1) was then used for differential expression analysis, incorporating normalization and variance-stabilizing transformation to account for differences in sequencing depth and library size. […]

[2] = test system: acute DSS colitis in NFD/FDD fed mice; test: Acute DSS colitis in mice fed fiber-deficient (no fiber) diet; format: in vivo, mouse
Description: (§2) Mice and diets C57BL/6J and Il10^−/− mice were purchased from Jackson Laboratory. Animals were purchased from maximum barrier rooms and maintained in high barrier animal rooms at Columbia University. All mice were maintained under specific-pathogen-free (SPF) conditions for the duration of the experiments. All experiments were performed under IACUC approved guidelines. To control for microbiota and cage effects, mice were shuffled between cages before the start of each experiment and randomly assigned to each group. All experiments were performed with gender and age (8-12 weeks at start of experiment) matched mice. Animals were maintained on normal diet (PicoLab Rodent Diet 20, 5053) until start of experiments and then switched to fiber-deficient diet (Teklad Custom Diet, TD.00278) or continued on ND as indicated. ND contained 21% protein, 53.4% carbohydrates, 5% fat, 5% fiber and 4 kcal/g. FDD contained 19.3% protein, 64.8% carbohydrates, 5.1% fat and no fiber, overall the diet provides 3.9 kcal/g.
as §1
Histological analyses The colonic tissue was carefully rinsed with PBS to remove fecal matter. Colon and small intestine was fixated in 10% formalin for >24 hours and embedded in paraffin. 5 μm section were stained with H&E, Alcian Blue and Immunohistochemistry (IHC) staining for GLP-1 (GLP-1 polyclonal antibody, PA5-79303, Invitrogen). A pathologist assessed and scored H&E stained slides for colitis grading.
Plating for liver colony forming units (CFU) For bacterial extraction from liver tissue, livers were first weighed and then transferred into sterile stainless steel microvials (Biospec #2007) containing two stainless steel beads (6.35 mm, Biospec #11079635SS) and capped with silicone rubber caps (Biospec #2008). The vials were subsequently filled with 500 μL of sterile phosphate-buffered saline (PBS), and the tubes were placed on ice to prevent bacterial growth. The samples were homogenized using a Mini-BeadBeater-16 (BioSpec) with three cycles of 30 seconds at 4° C. After extraction, the samples were diluted as needed in PBS, and 100 μL of the diluted solution was plated onto Luria-Bertani (LB) agar plates (2% agar). The plates were thoroughly dried and incubated at 37° C. overnight. Colony-forming units (CFU) were counted the following day and normalized to tissue weight.
Plasma analyses GLP-1 and pro-inflammatory cytokine measurements were performed from plasma samples. After euthanasians, blood was drawn from mice with needles coated with EDTA to stop coagulation. Blood samples were pelleted by centrifugation for 10 min at 15000 rpm at 4° C. Supernatant was transferred to a new tube, snap frozen and stored at −80° C. GLP-1 ELISA (GLP-1 Multispecies ELISA kit, BMS2194, Invitrogen) and LEGENDplex Mouse Inflammation Panel (740446, BioLegend) were performed according to manufacturer protocol. […]

[3] = test system: acute DSS colitis in NFD/FDD fed mice; test: as above; format: in vivo, mouse; conditions: five days DSS colitis
[4] = test system: acute DSS colitis in NC/ND fed mice; test: Acute DSS colitis in mice fed normal chow / normal diet; format: in vivo, mouse; conditions: five days DSS colitis
Description: as §2, §1
Plating for liver colony forming units (CFU) For bacterial extraction from liver tissue, livers were first weighed and then transferred into sterile stainless steel microvials (Biospec #2007) containing two stainless steel beads (6.35 mm, Biospec #11079635SS) and capped with silicone rubber caps (Biospec #2008). […] Colony-forming units (CFU) were counted the following day and normalized to tissue weight.
Here, mice with low fiber diets were treated with DSS for […] with or without the engineered Nissle HldSE (FIG. 3A) Treatment with Nissle HldSE improved barrier function measured based on infiltrating gut bacteria in liver (Liver CFU; FIG. 3C). […]

[5] = test system: IEL γδ (gd) T cells; test: IEL γδ T cell IL-17A production and γδ T cell depletion in DSS colitis of NFD fed mice; format: in vivo, mouse
Description: EcN or EcN HldSE (5×10^9 CFU/mouse) was gavaged daily starting three days prior to DSS administration. gd T cells were depleted by administration of neutralizing antibodies i.p. every other day. […] EcN or EcN HldSE (5×10^9 CFU/mouse) was gavaged daily starting three days prior to DSS administration. gd T cells were depleted by administration of neutralizing antibodies i.p. every other day. N=3-5 mice/group, one experiment. […] EcN or EcN HldSE (5×10^9 CFU/mouse) was gavaged daily starting three days prior to DSS administration. gd T cells were depleted by administration of neutralizing antibodies i.p. every other day. N=3-5 mice/group, one experiment.

[6] = test system: GLP-1 release; conditions: cited from earlier work
[7] = FDD mice, five days DSS colitis, agonist 0.1 μg/g i.p. daily or 10^10 CFU gavage daily
[8] = FDD mice, DSS colitis, EcN-HldSE treatment plus antagonist injection

## Exendin-4 [GLP-1 receptor agonist]
[1]; colon of FDD mice during colitis
  genes linked to ribosome biogenesis, cell cycle and DNA replication and inflammatory signaling: downregulated
[1]; colon of FDD mice, DSS colitis, versus EcN control
  DEGs commonly upregulated in the colon with EcN-HldSE and the GLP-1 receptor agonist: ~50%
[1]; colon of FDD mice, acute colitis, DSS colitis time-series dataset
  genes associated with homeostasis and recovery phases (GSEA): enrichment
[1]; over-representation analysis, colon of FDD mice during DSS colitis
  genes involved in lipid metabolism, tight junctions and epithelial structure maintenance: upregulation
[2]; FDD mice during DSS colitis
  L-cell numbers (GLP-1 staining) in colon: increase
  goblet cell numbers (Alcian Blue staining) in colon: remained unchanged
[2]; FDD mice, DSS colitis
  histological colitis score: improved
[2]; FDD mice, DSS colitis, figure headlines FIGS. 10, 11
  colitis outcome in dysbiotic mice: ameliorate
[2]; FDD mice, five days DSS colitis, plasma
  circulating (pro-)inflammatory cytokines (TNF-α, IL-1α, IL-6, MCP-1): lower
[2]; [7]
  colon shortening: less
  weight loss: reduced
[3]
  CFU levels in the liver (bacteria dissemination into the liver): significantly reduced

## Exendin-9-39 [GLP-1 receptor antagonist]
[4]
  bacterial dissemination into the liver: higher
  colon shortening: greater
  disease severity: exacerbated
  weight loss: more
[2]; FDD mice, DSS colitis, EcN-HldSE treatment plus antagonist 0.4 μg/g i.p. daily
  protective effects of the engineered probiotic: abolished
[2]; [8]
  colon length: shorter
  level of circulating pro-inflammatory cytokines: elevated
  number of bacteria in the liver: drastically increased
  weight loss: severe

## MAADIISTIGDLVKWIIDTVNKFKK [HldSE]
[5]; IEL γδ T cells after 6 days of DSS treatment of NFD fed mice
  IL-17A production by γδ T cells: upregulation
[5]; experimental depletion of γδ T cells, NFD fed mice, DSS
  efficacy of the peptide after depletion of γδ T cells: notable, albeit not exhaustive, diminishment
[6]
  GLP-1 release in vitro: induce
